Here are results for 16 molecules from US12012417B2, “N-substituted tetrahydrothienopyridine derivatives and uses thereof” (NOVARTIS AG, priority 2018, dated 2024).

Each structure is given as a SMILES string. Where a name gives a salt, the structure may show the parent alone. Bounds are passed on as bounds.

Assay [1] deals with Dengue 1 virus MY97-10245. The assay is described as follows: High-content imaging cell-based flavivirus immunodetection (HCl-CFI) assay, Dengue 1. To be noted: Dengue virus, A549, 48 h, read-out: Dengue 1 virus MY97-10245 in A549 using HCl [Inhibitor/IC50] Qualified AC50.
Assay [2] deals with Dengue 2 virus MY97-10340. The assay is described as follows: High-content imaging cell-based flavivirus immunodetection (HCl-CFI) assay, Dengue 2. To be noted: Dengue virus, A549, 48 h, read-out: Dengue 2 virus MY97-10340 in A549 using HCl [Inhibitor/IC50] Qualified AC50, A549 cells, MOI 0.3, 48 h, viral E protein expression. Summed up:
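A549 cells infected at MOI 0.3, treated with 3-fold, 10-point compound dilutions for 48 h. After paraformaldehyde fixation, viral E protein immunostained with 4G2 antibody and nuclei counterstained; imaged by high-content imaging. EC50 = concentration reducing E protein expression by 50%, from dose-response curves.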

In assay [3] the test system is Dengue 3 virus MY05-34640-WT-C6/36. The assay can be described thus: High-content imaging cell-based flavivirus immunodetection (HCl-CFI) assay, Dengue 3. To be noted: Dengue virus, A549, 48 h, read-out: Dengue 3 virus MY05-34640-WT-C6/36 in A549 using HCl [Inhibitor/IC50] Qualified AC50.
The test system of assay [4] is Dengue 4 virus MY01-22713. The assay can be described thus: High-content imaging cell-based flavivirus immunodetection (HCl-CFI) assay, Dengue 4. The note with it: Dengue virus, A549, 48 h, read-out: Dengue 4 virus MY01-22713 in A549 using HCl [Inhibitor/IC50] Qualified AC50, A549 cells, 48 h, viral E protein expression.

Regarding `N#Cc1c(NC(=O)Cc2ccc(S(=O)(=O)C(F)F)cc2)sc2c1CN(Cc1cccc(F)c1)CC2` [Example 45, N-(3-cyano-5-(3-fluorobenzyl)-4,5,6,7-tetrahydrothieno[3,2-c]pyridin-2-yl)-2-(4-((difluoromethyl)sulfonyl)phenyl)acetamide], the EC50 is more than 1000 nM in assay [1], more than 1000 nM in assay [2], 100 to 1000 nM in assay [3] and 100 to 1000 nM in assay [4].
As for `Cc1cccc(CN2CCc3c(sc(NC(=O)Cc4ccc(S(C)(=O)=O)cc4)c3C#N)C2)c1` [Example 104, N-(3-cyano-6-(3-methylbenzyl)-4,5,6,7-tetrahydrothieno[2,3-c]pyridin-2-yl)-2-(4-(methylsulfonyl)phenyl)acetamide], the EC50 in assay [1] is more than 1000 nM; in assay [2] it was 100 to 1000 nM; in assay [3] it was 100 to 1000 nM; in assay [4], less than 100 nM.
On to `COc1cc(Cl)cc(CC(=O)Nc2sc3c(c2C#N)CN(Cc2cccc(F)c2)CC3)c1` [Example 39, 2 (3 chloro-5-methoxyphenyl)-N-(3-cyano-5-(3-fluorobenzyl)-4,5,6,7-tetrahydrothieno[3,2-c]pyridin-2-yl)acetamide], for which the EC50 in assay [1] was more than 1000 nM; in assay [2], more than 1000 nM; in assay [3], 100 to 1000 nM; in assay [4], 100 to 1000 nM.
In the case of `CS(=O)(=O)c1ccc(CC(=O)Nc2sc3c(c2C#N)CCN(Cc2cc(Cl)ccc2Cl)C3)cc1` [Example 121, N-(3-cyano-6-(2,5-dichlorobenzyl)-4,5,6,7-tetrahydrothieno[2,3-c]pyridin-2-yl)-2-(4-(methylsulfonyl)phenyl)acetamide], the EC50 in assay [1] is more than 1000 nM; in assay [2] it was 100 to 1000 nM; in assay [3], more than 1000 nM; in assay [4], 100 to 1000 nM.
As to `CC(C1CCCCC1)N1CCc2sc(NC(=O)Cc3ccc(S(N)(=O)=O)cc3)c(C#N)c2C1` (stereo not shown) [Example 3, N-(3-cyano-5-(1-cyclohexylethyl)-4,5,6,7-tetrahydrothieno[3,2-c]pyridin-2-yl)-2-(4-sulfamoylphenyl)acetamide], the EC50 in assay [1] is 100 to 1000 nM; in assay [2] it was less than 100 nM; in assay [3], less than 100 nM; in assay [4], less than 100 nM.
As for `COc1cc(CC(=O)Nc2sc3c(c2C#N)CN(CC2CCCCC2)CC3)ccc1S(N)(=O)=O` [Example 7, N-(3-cyano-5-(cyclohexylmethyl)-4,5,6,7-tetrahydrothieno[3,2-c]pyridin-2-yl)-2-(3-methoxy-4-sulfamoylphenyl)acetamide], the EC50 in assay [1], in assay [2], in assay [3] and in assay [4] was less than 100 nM in each case.
Consider `N#Cc1c(NC(=O)Cc2ccc(S(N)(=O)=O)cc2)sc2c1CCN(Cc1cccc(F)c1)CC2` [Example 124, N-(3-cyano-6-(3-fluorobenzyl)-5,6,7,8-tetrahydro-4H-thieno[2,3-d]azepin-2-yl)-2-(4-sulfamoylphenyl)acetamide], for which the EC50 in assay [1] is 100 to 1000 nM; in assay [2] it was 100 to 1000 nM; in assay [3], less than 100 nM; in assay [4], less than 100 nM.
In the case of `N#Cc1c(NC(=O)Cc2ccc(S(N)(=O)=O)cc2)sc2c1CCCN(Cc1cccc(F)c1)C2` [Example 126, N-(3-cyano-7-(3-fluorobenzyl)-5,6,7,8-tetrahydro-4H-thieno[2,3-c]azepin-2-yl)-2-(4-sulfamoylphenyl)acetamide], the EC50 in assay [1] is 100 to 1000 nM; in assay [2], 100 to 1000 nM; in assay [3], 100 to 1000 nM; in assay [4], less than 100 nM.
On to `N#Cc1c(NC(=O)Cc2ccc(S(N)(=O)=O)cc2)sc2c1CCN(CC1CCCCC1)CC2` [Example 125, N-(3-cyano-6-(cyclohexylmethyl)-5,6,7,8-tetrahydro-4H-thieno[2,3-d]azepin-2-yl)-2-(4-sulfamoylphenyl)acetamide], for which the EC50 in assay [1] was more than 1000 nM; in assay [2] it was 100 to 1000 nM; in assay [3] it was 100 to 1000 nM; in assay [4], 100 to 1000 nM.
On to `COc1cccc(CC(=O)Nc2sc3c(c2C#N)CN(Cc2cccc(F)c2)CC3)c1Cl` [Example 41, 2-(2-chloro-3-methoxyphenyl)-N-(3-cyano-5-(3-fluorobenzyl)-4,5,6,7-tetrahydrothieno[3,2-c]pyridin-2-yl)acetamide], for which the EC50 in assay [1] is more than 1000 nM; in assay [2], 100 to 1000 nM; in assay [3] it was 100 to 1000 nM; in assay [4] it was 100 to 1000 nM.
Turning to `N#Cc1c(NC(=O)Cc2ccc(S(N)(=O)=O)cc2)sc2c1CN(CC1CCCC1)CC2` [Example 4, N-(3-cyano-5-(cyclopentylmethyl)-4,5,6,7-tetrahydrothieno[3,2-c]pyridin-2-yl)-2-(4-sulfamoylphenyl)acetamide], the EC50 is 100 to 1000 nM in assay [1], less than 100 nM in assay [2], 100 to 1000 nM in assay [3] and less than 100 nM in assay [4].
Consider `CS(=O)(=O)c1ccc(CC(=O)Nc2sc3c(c2C#N)CCN(Cc2ccc(F)c(F)c2)C3)cc1` [Example 117, N-(3-cyano-6-(3,4-difluorobenzyl)-4,5,6,7-tetrahydrothieno[2,3-c]pyridin-2-yl)-2-(4-(methylsulfonyl)phenyl)acetamide], for which the EC50 was 100 to 1000 nM in assay [1], 100 to 1000 nM in assay [2], 100 to 1000 nM in assay [3] and less than 100 nM in assay [4].
Consider `CC1Cc2sc(NC(=O)Cc3ccc(S(=O)(=O)NCC4CCCC4)cc3)c(C#N)c2CN1CC1CCCC1` (stereo not shown) [Example 61, N-(3-cyano-5-(cyclopentylmethyl)-6-methyl-4,5,6,7-tetrahydrothieno[3,2-c]pyridin-2-yl)-2-(4-(N-(cyclopentylmethyl)sulfamoyl)phenyl)acetamide], for which the EC50 in assay [1] is more than 1000 nM; in assay [2] it was 100 to 1000 nM; in assay [3] it was more than 1000 nM; in assay [4], more than 1000 nM.
As to `COC(=O)c1cccc(CN2CCc3c(sc(NC(=O)Cc4ccc(S(C)(=O)=O)cc4)c3C#N)C2)c1` [Example 120, methyl 3-((3-cyano-2-(2-(4-(methylsulfonyl)phenyl)acetamido)-4,7-dihydrothieno[2,3-c]pyridin-6(51-1)-yl)methyl)benzoate], the EC50 is more than 1000 nM in assay [1], 100 to 1000 nM in assay [2], 100 to 1000 nM in assay [3] and less than 100 nM in assay [4].
Consider `CC1Cc2sc(NC(=O)Cc3ccc(S(N)(=O)=O)cc3)c(C#N)c2CN1CC1CCCC1` (stereo not shown) [Example 59, N-(3-cyano-5-(cyclopentylmethyl)-6-methyl-4,5,6,7-tetrahydrothieno[3,2-c]pyridin-2-yl)-2-(4-sulfamoylphenyl)acetamide hydrochloride], for which the EC50 was more than 1000 nM in assay [1], 100 to 1000 nM in assay [2], 100 to 1000 nM in assay [3] and 100 to 1000 nM in assay [4].
For the molecule `N#Cc1c(NC(=O)Cc2ccc(S(N)(=O)=O)cc2)sc2c1CCCN(CC1CCCCC1)C2` [Example 127, N-(3-cyano-7-(cyclohexylmethyl)-5,6,7,8-tetrahydro-4H-thieno[2,3-c]azepin-2-yl)-2-(4-sulfamoylphenyl)acetamide], the EC50 in assay [1] was more than 1000 nM; in assay [2], 100 to 1000 nM; in assay [3] it was 100 to 1000 nM; in assay [4], 100 to 1000 nM.
